Measured values reported in PubChem BioAssay AID1259407 (Chemical Carcinogenesis Research Information System (CCRIS), 2018).
Active and inactive are the calls of the source. The rule behind the calls is not given here.

System: CCRIS mutagenicity, Ames/micronucleus/aberration tests
Assay: CCRIS mutagenicity studies
[1] = Test System: AMES SALMONELLA TYPHIMURIUM, Strain/Indicator: TA98, Metabolic Activation: NONE, Method: STANDARD PLATE
[2] = Test System: AMES SALMONELLA TYPHIMURIUM, Strain/Indicator: TA100, Metabolic Activation: NONE, Method: STANDARD PLATE
[3] = Test System: AMES SALMONELLA TYPHIMURIUM, Strain/Indicator: TA1535, Metabolic Activation: NONE, Method: STANDARD PLATE
[4] = Test System: AMES SALMONELLA TYPHIMURIUM, Strain/Indicator: TA1537, Metabolic Activation: NONE, Method: STANDARD PLATE
[5] = Test System: MOUSE LYMPHOMA, Strain/Indicator: L5178Y (TK+/TK-), Metabolic Activation: NONE, Method: SUSPENSION/PLATE
[6] = Test System: MOUSE LYMPHOMA, Strain/Indicator: L5178Y (TK+/TK-), Metabolic Activation: RAT, LIVER, S-9, AROCLOR 1254, Method: SUSPENSION/PLATE

Measured: mutagenic call

N#CC(C#N)=C(C#N)C#N
inactive: Test System: AMES SALMONELLA TYPHIMURIUM, Strain/Indicator: TA98, Metabolic Activation: HAMSTER, LIVER, S-9, AROCLOR 1254 (10%), Method: STANDARD PLATE inactive; negative | [1] inactive; negative | Test System: AMES SALMONELLA TYPHIMURIUM, Strain/Indicator: TA98, Metabolic Activation: RAT, LIVER, S-9, AROCLOR 1254 (10%), Method: STANDARD PLATE inactive; negative | Test System: AMES SALMONELLA TYPHIMURIUM, Strain/Indicator: TA100, Metabolic Activation: HAMSTER, LIVER, S-9, AROCLOR 1254 (10%), Method: STANDARD PLATE inactive; negative | [2] inactive; negative | Test System: AMES SALMONELLA TYPHIMURIUM, Strain/Indicator: TA100, Metabolic Activation: RAT, LIVER, S-9, AROCLOR 1254 (10%), Method: STANDARD PLATE inactive; negative | Test System: AMES SALMONELLA TYPHIMURIUM, Strain/Indicator: TA1535, Metabolic Activation: HAMSTER, LIVER, S-9, AROCLOR 1254 (10%), Method: STANDARD PLATE inactive; negative | [3] inactive; negative | Test System: AMES SALMONELLA TYPHIMURIUM, Strain/Indicator: TA1535, Metabolic Activation: RAT, LIVER, S-9, AROCLOR 1254 (10%), Method: STANDARD PLATE inactive; negative | Test System: AMES SALMONELLA TYPHIMURIUM, Strain/Indicator: TA1537, Metabolic Activation: HAMSTER, LIVER, S-9, AROCLOR 1254 (10%), Method: STANDARD PLATE inactive; negative | [4] inactive; negative | Test System: AMES SALMONELLA TYPHIMURIUM, Strain/Indicator: TA1537, Metabolic Activation: RAT, LIVER, S-9, AROCLOR 1254 (10%), Method: STANDARD PLATE inactive; negative | Test System: AMES SALMONELLA TYPHIMURIUM, Strain/Indicator: TA1538, Metabolic Activation: HAMSTER, LIVER, S-9, AROCLOR 1254 (10%), Method: STANDARD PLATE inactive; negative | Test System: AMES SALMONELLA TYPHIMURIUM, Strain/Indicator: TA1538, Metabolic Activation: NONE, Method: STANDARD PLATE inactive; negative | Test System: AMES SALMONELLA TYPHIMURIUM, Strain/Indicator: TA1538, Metabolic Activation: RAT, LIVER, S-9, AROCLOR 1254 (10%), Method: STANDARD PLATE inactive; negative | [5] inactive; negative. reevaluation of results: inconclusive | [6] inactive; negative. reevaluation of results: inconclusive

O=c1[nH]c(=O)[nH]c(=O)[nH]1
inactive: Test System: AMES SALMONELLA TYPHIMURIUM, Strain/Indicator: TA98, Metabolic Activation: HAMSTER, LIVER, S-9, AROCLOR 1254, Method: PREINCUBATION inactive; negative | Test System: AMES SALMONELLA TYPHIMURIUM, Strain/Indicator: TA98, Metabolic Activation: NONE, Method: PREINCUBATION inactive; negative | [1] inactive; negative | Test System: AMES SALMONELLA TYPHIMURIUM, Strain/Indicator: TA98, Metabolic Activation: RAT, LIVER, S-9, AROCLOR 1254, Method: PREINCUBATION inactive; negative | Test System: AMES SALMONELLA TYPHIMURIUM, Strain/Indicator: TA98, Metabolic Activation: RAT, LIVER, S-9, AROCLOR 1254, Method: STANDARD PLATE inactive; negative | Test System: AMES SALMONELLA TYPHIMURIUM, Strain/Indicator: TA100, Metabolic Activation: HAMSTER, LIVER, S-9, AROCLOR 1254, Method: PREINCUBATION inactive; negative | Test System: AMES SALMONELLA TYPHIMURIUM, Strain/Indicator: TA100, Metabolic Activation: NONE, Method: PREINCUBATION inactive; negative | [2] inactive; negative | Test System: AMES SALMONELLA TYPHIMURIUM, Strain/Indicator: TA100, Metabolic Activation: RAT, LIVER, S-9, AROCLOR 1254, Method: PREINCUBATION inactive; negative | Test System: AMES SALMONELLA TYPHIMURIUM, Strain/Indicator: TA100, Metabolic Activation: RAT, LIVER, S-9, AROCLOR 1254, Method: STANDARD PLATE inactive; negative | Test System: AMES SALMONELLA TYPHIMURIUM, Strain/Indicator: TA1535, Metabolic Activation: HAMSTER, LIVER, S-9, AROCLOR 1254, Method: PREINCUBATION inactive; negative | Test System: AMES SALMONELLA TYPHIMURIUM, Strain/Indicator: TA1535, Metabolic Activation: NONE, Method: PREINCUBATION inactive; negative | [3] inactive; negative | Test System: AMES SALMONELLA TYPHIMURIUM, Strain/Indicator: TA1535, Metabolic Activation: RAT, LIVER, S-9, AROCLOR 1254, Method: PREINCUBATION inactive; negative | Test System: AMES SALMONELLA TYPHIMURIUM, Strain/Indicator: TA1535, Metabolic Activation: RAT, LIVER, S-9, AROCLOR 1254, Method: STANDARD PLATE inactive; negative | Test System: AMES SALMONELLA TYPHIMURIUM, Strain/Indicator: TA1537, Metabolic Activation: HAMSTER, LIVER, S-9, AROCLOR 1254, Method: PREINCUBATION inactive; negative | Test System: AMES SALMONELLA TYPHIMURIUM, Strain/Indicator: TA1537, Metabolic Activation: NONE, Method: PREINCUBATION inactive; negative | [4] inactive; negative | Test System: AMES SALMONELLA TYPHIMURIUM, Strain/Indicator: TA1537, Metabolic Activation: RAT, LIVER, S-9, AROCLOR 1254, Method: PREINCUBATION inactive; negative | Test System: AMES SALMONELLA TYPHIMURIUM, Strain/Indicator: TA1537, Metabolic Activation: RAT, LIVER, S-9, AROCLOR 1254, Method: STANDARD PLATE inactive; negative | [5] inactive; negative | [6] inactive; negative
